Experiment [1] relates to MCP-1 production by THP-1 cells. Put plainly: MCP-1 production by macrophages. The conditions noted are these: THP-1 cells stimulated with opsonized zymosan, 24 hours, read-out: IC50 MCP-1 production. Type of experiment: cell-based, human. The method, then:
The human macrophage cell line, THP-1 was plated in a 12 well plate such that each well contains 1×10^6 cells in 2 ml of media containing 10% FCS. Opsonized zymosan was prepared by resuspending 20 mg of zymosan A in 2 ml of ddH2O and homogenizing until a uniform suspension was obtained. Homogenized zymosan was pelleted at 250 g and resuspended in 4 ml of human serum for a final concentration of 5 mg/ml and incubated in a 37° C. water bath for 20 minutes to enable opsonization. Geldanamycin was prepared in DMSO at a concentration of 10^−2 M and serially diluted 10-fold to give a range of stock concentrations (10^−8 M to 10^−2 M).
THP-1 cells were stimulated to produce MCP-1 by the addition of 1 mg/ml opsonized zymosan. […] was added to THP-1 cells by directly adding DMSO stock solutions, prepared earlier, at a 1/1000 dilution, to each well. Each drug concentration was tested in triplicate wells. Plates were incubated at 37° C. for 24 hours.
After a 24-hour stimulation, supernatants were collected to quantify MCP-1 production. MCP-1 concentrations in the supernatants were determined by ELISA using recombinant human MCP-1 to obtain a standard curve. A 96-well MaxiSorb plate was coated with 100 μL of anti-human MCP-1 Capture Antibody diluted in Coating Buffer (0.1M sodium carbonate pH 9.5) overnight at 4° C. The dilution of Capture Antibody used was lot-specific and was determined empirically. Capture antibody was then aspirated and the plate washed 3 times with Wash Buffer (PBS, 0.05% TWEEN-20). Plates were blocked for 1 hour at room temperature with 200 μL/well of Assay Diluent (PBS, 10% FCS pH 7.0). After blocking, plates were washed 3 times with Wash Buffer. […] Sample supernatants and standards were assayed in triplicate and were incubated at room temperature for 2 hours after addition to the plate coated with Capture Antibody. The plates were washed 5 times and incubated with 100 μL of Working Detector (biotinylated anti-human MCP-1 detection antibody+avidin-HRP) for 1 hour at room temperature. Following this incubation, the plates were washed 7 times and 100 μL of Substrate Solution (tetramethylbenzidine, H2O2) was added to plates and incubated for 30 minutes at room temperature. […] Mean absorbance was determined from triplicate data readings and the mean background was subtracted. MCP-1 concentration values were obtained from the standard curve.

The test system of experiment [2] is TNFα production by THP-1 cells. Put plainly: TNF-alpha production by macrophages. Type of experiment: cell-based, human. The conditions noted are these: THP-1 cells stimulated with opsonized zymosan, 24 hours, read-out: IC50 TNFα production. The method, then:
The human macrophage cell line, THP-1 was plated in a 12-well plate such that each well contains 1×10^6 cells in 2 ml of media containing 10% FCS. Opsonized zymosan was prepared by resuspending 20 mg of zymosan A in 2 ml of ddH2O and homogenizing until a uniform suspension was obtained. Homogenized zymosan was pelleted at 250 g and resuspended in 4 ml of human serum for a final concentration of 5 mg/ml and incubated in a 37° C. water bath for 20 minutes to enable opsonization.
THP-1 cells were stimulated to produce TNFα by the addition of 1 mg/ml opsonized zymosan. […] Each drug concentration was tested in triplicate wells. Plates were incubated at 37° C. for 24 hours.
After a 24-hour stimulation, supernatants were collected to quantify TNFα production. TNFα concentrations in the supernatants were determined by ELISA using recombinant human TNFα to obtain a standard curve A 96-well MaxiSorb plate was coated with 100 μL of anti-human TNFα Capture Antibody diluted in Coating Buffer (0.1M sodium carbonate pH 9 5) overnight at 4° C. The dilution of Capture Antibody used was lot-specific and was determined empirically. Capture antibody was then aspirated and the plate washed 3 times with Wash Buffer (PBS, 0.05% TWEEN-20) Plates were blocked for 1 hour at room temperature with 200 μL/well of Assay Diluent (PBS, 10% FCS pH 7.0). After blocking, plates were washed 3 times with Wash Buffer. […] Sample supernatants and standards were assayed in triplicate and were incubated at room temperature for 2 hours after addition to the plate coated with Capture Antibody. The plates were washed 5 times and incubated with 100 μL of Working Detector (biotinylated anti-human TNFα detection antibody+avidin-HRP) for 1 hour at room temperature. Following this incubation, the plates were washed 7 times and 100 μL of Substrate Solution (tetramethylbenzidine, H2O2) was added to plates and incubated for 30 minutes at room temperature. […] Mean absorbance was determined from triplicate data readings and the mean background was subtracted. TNFα concentration values were obtained from the standard curve.

The next experiment relates to Smooth muscle cells. Put plainly: Proliferation of smooth muscle cells. The conditions noted are these: read-out: IC50 proliferation of smooth muscle cells. Type of experiment: cell-based. The method, then: Smooth muscle cells at 70-90% confluency were trypsinized, replated at 600 cells/well in media in 96-well plates and allowed to attachment overnight. Paclitaxel was prepared in DMSO at a concentration of 10^−2 M and diluted 10-fold to give a range of stock concentrations (10^−8 M to 10^−2 M). […] Each drug concentration was tested in triplicate wells. Plates containing cells and paclitaxel were incubated at 37° C. for 72 hours.
To terminate the assay, the media was removed by gentle aspiration A 1/400 dilution of CYQUANT 400×GR dye indicator (Molecular Probes; Eugene, Oreg.) was added to 1× Cell Lysis buffer, and 200 μL of the mixture was added to the wells of the plate. Plates were incubated at room temperature, protected from light for 3-5 minutes.

The test system of a further experiment is human fibroblasts. Put plainly: Cell proliferation of fibroblasts. The conditions noted are these: Fibroblast, 72 hours, CYQUANT, read-out: IC50 cell proliferation of fibroblasts. Type of experiment: cell-based. The procedure:
Fibroblasts at 70-90% confluency are trypsinized, replated at 600 cells/well in media in 96-well plates and allowed to attachment overnight. […] Each drug concentration is tested in triplicate wells. Plates containing fibroblasts and drug substance are incubated at 37° C. for 72 hours.
To terminate the assay, the media is removed by gentle aspiration. A 1/400 dilution of CYQUANT 400×GR™ dye indicator (Molecular Probes; Eugene, Oreg.) is added to 1× Cell Lysis buffer, and 200 μL of the mixture is added to the wells of the plate. Plates are incubated at room temperature, protected from light for 3-5 minutes.

Where a name gives a salt, the structure may show the parent alone. Read-outs that look alike come from different tables or passages of the source.

For the molecule `C=C1/C(=C\C=C2/CCC[C@]3(C)[C@@H]([C@H](C)CCCC(C)(C)O)CC[C@@H]23)C[C@@H](O)C[C@@H]1O` [1-α-25 dihydroxy vitamin D3], the IC50 in experiment [1] is 1 nM.
`CCCCC/C=C/C=C1/C(=O)C=C[C@@H]1C/C=C\CCCC(=O)O` [15-deoxy prostaglandin J2, 15-Deoxy-D12,14-prostaglandin J2]: the IC50 came to 724 nM in experiment [1] and 742 nM in experiment [2].
On to `CO[C@H]1/C=C\C=C(/C)C(=O)NC2=CC(=O)C(NCCN(C)C)=C(C[C@@H](C)C[C@H](OC)[C@H](O)[C@@H](C)/C=C(\C)[C@@H]1OC(N)=O)C2=O` [17-DMAG, 17-dimethylaminoethylamino-17-demethoxy-geldanamycin], for which the IC50 is 17 nM in the experiment with Smooth muscle cells (72 hours, CYQUANT) and 0.1 to 10 nM in the experiment with human fibroblasts.
In the case of `CC1(C)CN[Se]c2ccccc21` [BXT-51072], in experiment [1], the IC50 was 683 nM.
In the case of `Cc1ccc(S(=O)(=O)/C=C/C#N)cc1` [Bay 11-7082], in experiment [2], the IC50 worked out at 810 nM.
Turning to `O=C(O)CCCCN(CCc1ccccc1OCc1ccc(CCc2ccccc2)cc1)Cc1ccc(C(=O)O)cc1` [Bay 58-2667], the IC50 in experiment [1] stood at 216 nM.
Turning to `Fc1ccc(-c2nc3n(c2-c2ccncc2)CCS3)cc1` [SKF 86002], in experiment [2] (Homo sapiens), the IC50 turned out to be 831 nM.
As for `C/C=C(/C)C(=O)O[C@H]1C(C)=C2[C@H]([C@@H]1OC(=O)CCCCCCC)[C@@](C)(OC(C)=O)C[C@H](OC(=O)CCC)[C@@]1(O)[C@H]2OC(=O)[C@@]1(C)O` [Thapsigargin], the IC50 in the experiment with human fibroblasts lay in the range of 0.1 to 10 nM.
The same measure, in the same setting: in the case of `Cn1c(=O)c2[nH]cnc2n(C)c1=O` [Theophylline] it was 0.1 to 10 nM; in that of `Cc1cccc(Nc2ccncc2S(=O)(=O)NC(=O)NC(C)C)c1` [Torasemide], 10 to 100 nM.
`CC(=O)Oc1cc(C(F)(F)F)ccc1C(=O)O` [Triflusal]: in the experiment on human fibroblasts, the IC50 fell in the range of 10 to 100 nM.
As for `CC(C)[C@]12O[C@H]1[C@@H]1O[C@]13[C@]1(O[C@H]1C[C@H]1C4=C(CC[C@@]13C)C(=O)OC4)[C@@H]2O` [Triptolide], the IC50 in the experiment on human fibroblasts was 0.1 to 10 nM.
Regarding `Oc1ccnc(O)n1` [Uracil, 2,4-Dihydroxypyrimidine], the IC50 with human fibroblasts fell in the range of 10 to 100 nM.
The same measure, in the same setting: the same measure for `CC[C@]12CCCN3CCc4c(n(c5ccccc45)[C@@](O)(C(=O)OC)C1)[C@@H]32` [Vincamine]: 0.1 to 10 nM; for `CC(=O)CC(c1ccccc1)c1c(O)c2ccccc2oc1=O` (stereo not drawn) [Warfarin, 3-(a-Acetonylbenzyl)-4-hydroxycoumarin sodium salt]: 0.1 to 10 nM; for `COc1cc(O)c2c(c1)oc(=O)c1c3cc(O)c(O)cc3oc21` [Wedelolactone]: 1200 to 10000 nM.
As for `CO[C@H]1C[C@@H]2CC[C@@H](C)[C@@](O)(O2)C(=O)C(=O)N2CCCC[C@H]2C(=O)O[C@H]([C@H](C)C[C@@H]2CC[C@H](n3cnnn3)[C@H](OC)C2)CC(=O)[C@H](C)/C=C(\C)[C@@H](O)[C@@H](OC)C(=O)[C@H](C)C[C@H](C)/C=C/C=C/C=C/1C` [Zotarolimus], the IC50 in the experiment with human fibroblasts fell in the range of 0.1 to 10 nM.
As for `CN(C)CCCN1c2ccccc2Sc2ccc(Cl)cc21` [chlorpromazine], the IC50 amounted to 0.011 nM in experiment [1] (Homo sapiens) and 6 nM in experiment [2] (Homo sapiens).
In the case of `Nc1nc(Cl)nc2c1ncn2[C@H]1C[C@H](O)[C@@H](CO)O1` [cladribine, 2-Chloro-2-deoxyadenosine], in the experiment on Smooth muscle cells (72 hours, CYQUANT), the IC50 came out at 137 nM.
In the case of `C=C1[C@@H](C)[C@H]2[C@H](Cc3ccccc3)NC(=O)[C@]23OC(=O)/C=C/C(=O)CCC[C@@H](C)C/C=C/[C@H]3[C@@H]1O` [cytochalasin A], the IC50 in the experiment on Smooth muscle cells (72 hours, CYQUANT) was 221 nM.
`C/C1=C/C[C@@H](/C(C)=C/c2csc(C)n2)OC(=O)C[C@H](O)C(C)(C)C(=O)[C@H](C)[C@@H](O)[C@@H](C)CCC1` [epothilone D]: the IC50 in the experiment with Smooth muscle cells (72 h) was 5 nM; with human fibroblasts, 10 to 100 nM.
For `COC1=C2C[C@@H](C)C[C@H](OC)[C@H](O)[C@@H](C)/C=C(\C)[C@H](OC(N)=O)[C@@H](OC)/C=C\C=C(/C)C(=O)NC(=CC1=O)C2=O` [geldanamycin], the IC50 in experiment [2] (Homo sapiens) was 14 nM; in the experiment on Smooth muscle cells (72 hours, CYQUANT) it was 5 nM; in the experiment on human fibroblasts, 0.1 to 10 nM.
Consider `Nc1ccn([C@@H]2O[C@H](CO)[C@@H](O)C2(F)F)c(=O)n1` [gemcitabine], for which the IC50 worked out at 50 nM in experiment [1] and 9 nM in the experiment with Smooth muscle cells (72 hours, CYQUANT).
For the molecule `CC(=O)[C@]1(O)Cc2c(O)c3c(c(O)c2[C@@H](O[C@H]2C[C@H](N)[C@H](O)[C@H](C)O2)C1)C(=O)c1ccccc1C3=O` [idarubicin], the IC50 in the experiment on Smooth muscle cells (72 hours, CYQUANT) came to 38 nM.
Still for that read-out and setting: the same measure for `CCC(C)n1ncn(-c2ccc(N3CCN(c4ccc(OCC5COC(Cn6cncn6)(c6ccc(Cl)cc6Cl)O5)cc4)CC3)cc2)c1=O` (stereo not drawn) [itraconazole]: 795 nM.
The same measure, in the same setting: the same measure for `CC[C@H](C)C(=O)O[C@H]1C[C@@H](C)C=C2C=C[C@H](C)[C@H](CC[C@@H]3C[C@@H](O)CC(=O)O3)[C@H]21` [lovastatin]: 978 nM; for `CO[C@@]12[C@H](COC(N)=O)C3=C(C(=O)C(C)=C(N)C3=O)N1C[C@@H]1N[C@@H]12` [mitomycin C]: 53 nM; for `COC(=O)[C@@H]1c2cc3c(c(O)c2[C@@H](O[C@@H]2O[C@@H](C)[C@H](OC)[C@@](C)(OC)[C@H]2OC)C[C@]1(C)O)C(=O)c1c(O)cc2c(c1C3=O)O[C@@H]1O[C@@]2(C)[C@H](O)[C@@H](N(C)C)[C@@H]1O` [nogalamycin]: 49 nM.
Take `COc1ccc(C[C@H](N)C(=O)N[C@H]2[C@@H](O)[C@H](n3cnc4c(N(C)C)ncnc43)O[C@@H]2CO)cc1` [puromycin]: the IC50 in experiment [1] amounted to 161 nM; with Smooth muscle cells (72 hours, CYQUANT), 384 nM.
Take `CC[C@]1(O)C[C@H]2CN(CCc3c([nH]c4ccccc34)[C@@](C(=O)OC)(c3cc4c(cc3OC)N(C=O)[C@H]3[C@@](O)(C(=O)OC)[C@H](OC(C)=O)[C@]5(CC)C=CCN6CC[C@]43[C@@H]65)C2)C1` [vincristine]: the IC50 in experiment [1] was 16 nM; in the experiment on Smooth muscle cells (72 hours, CYQUANT), 9 nM.

The values are drawn from patent US20090226500A1, “SUTURES AND ANTI-SCARRING AGENTS” (Angiotech Pharmaceuticals, Inc, priority 2006, published 2009).
